Test results reported in patent publication US8507554B2 (priority 2006, dated 2013).

Key:
[1] = system: P. aeruginosa; assay: Inhibiting ability against biofilm formation: count of adhesive P. aeruginosa on specimen surface after 4 hours; format: cell-based, Pseudomonas aeruginosa; details: 10 μmol/L, table shows Comparative example 1 (distilled water) = 100
Procedure: Inhibiting ability against biofilm formation of quorum-sensing antagonist prepared according to exemplary embodiments 1-7 was evaluated.
Specimen was set in nutrient flask containing 10 μmol/L of quorum-sensing antagonist prepared according to exemplary embodiments 1-7 and P. aeruginosa which has strong adhesive character on surface. Numbers of adhesive P. aeruginosa on surface were counted after 4 hours. Distilled water was poured into nutrient flask instead of quorum-sensing antagonist as a comparison example 1. Numbers of adhesive P. aeruginosa on surface were counted after 4 hours. […] Numbers of adhesive P. aeruginosa on surface were counted after 4 hours. […]

[2] = system: Vibrio harveyi BB886; assay: Bioluminescence assay of quorum-sensing antagonistic ability with reporter strain Vibrio harveyi BB886; format: cell-based; details: 2 hours
Procedure: Quorum-sensing antagonistic ability of 2-(phenylcarbonothioylthio) acetyl homoserine lactone as described in Formula 8 was evaluated using Vibrio harveyi strain BB886 which responds to the AI-1, i.e., N-(3-hydroxybutanoyl)-1-homoserine lactone (3-OH—C4-HSL) as reporter strain. Vibrio harveyi strain BB886 was grown in LBS medium (10 g/L tryptone, 5 g/L yeast extract, 20 g/L NaCl) at 30° C. For the bioluminescence assay, an overnight culture was diluted 100-fold in a sterile AI bioassay (AB) medium (300 mM NaCl, 50 mM MgSO4, 0.2% (w/v) vitamin-free casamino acid, 10 mM potassium phosphate, 1 mM 1-arginine, 1% glycerol; pH 7.5).
After vaporizing chloroform in 4 test tubes at 30° C. for 2 hours, 4.0 mL of the diluted reporter strain culture was added to No. 1˜No. 4 test tubes and incubated at 30° C. Luminescence measurements were performed after 2 hours of incubation using a luminescence meter (Thermo Electron Co.). Bacterial cell density was measured by optical densities at 600 nm (OD600) using a UV spectrophotometer (HP8452A, H.P.). The antagonist activities of 2-(phenylcarbonothioylthio) acetyl homoserine lactone were expressed as a specific luminescence; relative light units/OD600. […]

[3] = system: E. coli DH5α co-transformed by pJN105L (LasR expression plasmid) and pSC11 (lasI::lacZ fusion reporter plasmid); assay: LacZ bioassay of quorum-sensing antagonistic ability with co-transformed E. coli DH5α (LasR reporter); format: cell-based; details: 1 μM autoinducer 3-oxo-C12-HSL plus 1, 2 or 10 μM of compound
Procedure: Transformant E. coli was cultured in Luria-Bertani (LB) broth with 10 μg/mL gentamicin and 50 μg/mL ampicillin at 37° C.
For LacZ bioassay of 2-(phenylcarbonothioylthio) acetyl homoserine lactone, an overnight culture was diluted at 1:100 and incubated up to an optical density of 0.3 at 600 nm (OD600) at 30° C. Then, 0.4% arabinose was added.
After vaporizing chloroform in 4 test tubes at 37° C. for 2 hours, 4.0 mL of the diluted reporter strain culture was added to No. 1˜No. 4 test tubes.
LacZ Bioassay for test tubes described above was performed using Tropix-plus kit (Applied Biosystems, USA). Luminescence measurements were performed after 2 hours of incubation using a luminescence meter (Thermo Electron Co.). Bacterial cell density was measured by optical densities at 600 nm (OD600) using a UV spectrophotometer (HP8452A, H.P.).
The antagonist activities of 2-(phenylcarbonothioylthio) acetyl homoserine lactone were expressed as a specific luminescence; relative light units/OD600.

[4] = system: Agrobacterium tumefaciens A136(pTiA136, pCF218, pCF372); assay: LacZ luminescence assay of quorum-sensing antagonistic ability with reporter strain A. tumefaciens A136; format: cell-based; details: 0.5 μM autoinducer 3-oxo-C8-HSL plus 5 μM of compound
Procedure: A. tumefaciens A136 (pTiA136, pCF218, and pCF372) was cultured in Luria-Bertani (LB) media with 50 μg/mL spectinomycin and 4.5 μg/mL tetracycline at 30° C. For the bioassay of 2-(phenylcarbonothioylthio) acetyl homoserine lactone, an overnight culture was diluted at 1:100 and incubated up to an optical density of 0.3 at 600 nm (OD600) at 30° C.
No. 1 solution contained 0.5 μM of N-3-oxootanoyl homoserine lactone.
After vaporizing chloroform in 2 test tubes at 30° C. for 2 hours, 4.0 mL of the diluted reporter strain culture was added to No. 1 and No. 2 test tubes.
LacZ quantative analysis for test tubes described above was performed using Tropix-plus kit (Applied Biosystems, USA). Luminescence measurements were performed after 2 hours of incubation using a luminescence meter (Thermo Electron Co.). Bacterial cell density was measured by optical densities at 600 nm (OD600) using a UV spectrophotometer (HP8452A, H. P.). The antagonist activities of 2-(phenylcarbonothioylthio) acetyl homoserine lactone were expressed as a specific luminescence; relative light units/OD600.

[5] = system: P. aeruginosa; assay: Microscopy of P. aeruginosa biofilm grown on specimens for 48 hours; format: cell-based, Pseudomonas aeruginosa; details: biofilm grown 48 hours
Procedure: Specimens were set in nutrient flasks containing compounds according to the first exemplary embodiment 1, comparative examples 1 and 2. Biofilm was grown on the specimens for 48 hours. The specimen were examined using microscope. Furthermore, specimens were set in nutrient flasks containing compounds according to exemplary embodiment 6 and comparative example 2. Biofilm on the specimens was grown for 48 hours. The specimens were examined using a microscope.

| SMILES | % of adhesive P. aeruginosa relative to comparative example [1] | other results |
| --- | --- | --- |
| O=C(O)CSCCSCC(=O)NC1CCOC1=O (stereo not shown) [Example 4, 2-(2-(2-oxo-2-(2-oxo-tetrahydrofuran-3-ylamino)ethylthio)ethylthio)acetic acid] | 13% | – |
| O=C(CSc1ncccn1)NC1CCOC1=O (stereo not shown) [Example 2] | 51% | – |
| O=C(CSc1ccncc1)NC1CCOC1=O (stereo not shown) [Example 1, N-(2-oxo-tetrahydrofuran-3-yl)-2-(pyridin-4-ylthio)acetamide] | 40% | – |
| O=C(O)CSCC(=O)NC1CCOC1=O (stereo not shown) [Example 3, 2-(2-oxo-2-(2-oxo-tetrahydrofuran-3-ylamino)ethylthio)acetic acid] | 33% | – |
| O=C(CSC(=S)c1ccccc1)NC1CCOC1=O (stereo not shown) [Example 6, 2-(phenylcarbonothioylthio)acetyl homoserine lactone] | 20% | luminescence intensity per V. harveyi (relative light units/OD600) ([2]; 1 μM autoinducer 3-OH-C4-HSL plus 1, 5 or 10 μM of compound): decreased remarkably; luminescence intensity per co-transformed E. coli DH5α (relative light units/OD600) [3]: decreased remarkably; luminescence intensity per A. tumefaciens A136 (relative light units/OD600) [4]: decreased remarkably |
| CSCC(=O)NC1CCOC1=O (stereo not shown) [Example 5, 2-(methylthio)-N-(2-oxo-tetrahydrofuran-3-yl)acetamide] | 30% | – |
| C[C@@H](O)CC(=O)N[C@H]1CCOC1=O [3-hydroxybutanoylhomoserine lactone, N-(3-hydroxybutanoyl)-1-homoserine lactone, reference compound] | – | luminescence intensity per V. harveyi (relative light units/OD600) ([2]; sample containing only 1 μM autoinducer): relatively high |
| O=C(O)CSC(=S)SCC(=O)NC1CCOC1=O (stereo not shown) [Example 7] | 30% | – |
| CCCCCCCCCC(=O)CC(=O)N[C@H]1CCOC1=O [Comparative example 2, N-3-oxododecanoylhomoserinelactone, reference compound] | 190% | – |
| CCCCCC(=O)CC(=O)N[C@H]1CCOC1=O [Autoinducer] | – | P. aeruginosa attached on specimen (microscopic image) [5]: plentifully observed |
